Experimental data as given in PubChem BioAssay AID248 (DTP/NCI, 2004).
Inconclusive results and toxic doses are left out. Rule as the data show it: active = T/C of 150% or more; inactive = T/C below 125%.

Test system: L1210 leukemia ip in BDF1 mice, survival T/C
Assay: NCI In Vivo Anticancer Drug Screen. Data for tumor model L1210 Leukemia (intraperitoneal) in B6D2F1 (BDF1) mice
Conditions: endpoint: mean survival time, higher = longer survival
Summary of the method: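 Transplanted-tumor mice were given test agent; controls received vehicle only. Survival readings from the two groups were divided (treated over control).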

[1] = dose: 100.0 mg/kg/injection, schedule: Q01DX009 (ip), vehicle: saline with Tween-80
[2] = dose: 200.0 mg/kg/injection, schedule: Q01DX009 (ip), vehicle: saline with Tween-80
[3] = dose: 400.0 mg/kg/injection, schedule: Q01DX009 (ip), vehicle: saline with Tween-80
[4] = dose: 100.0 mg/kg/injection, schedule: Q04DX003 (ip), vehicle: Klucel (hydroxypropylcellulose) (HPC)
[5] = dose: 200.0 mg/kg/injection, schedule: Q04DX003 (ip), vehicle: Klucel (hydroxypropylcellulose) (HPC)
[6] = dose: 400.0 mg/kg/injection, schedule: Q04DX003 (ip), vehicle: Klucel (hydroxypropylcellulose) (HPC)
[7] = dose: 100.0 mg/kg/injection, schedule: Q01DX001 (ip), vehicle: other
[8] = dose: 200.0 mg/kg/injection, schedule: Q01DX001 (ip), vehicle: other
[9] = dose: 400.0 mg/kg/injection, schedule: Q01DX001 (ip), vehicle: other
[10] = dose: 25.0 mg/kg/injection, schedule: Q04DX002 (ip), vehicle: Klucel (hydroxypropylcellulose) (HPC)
[11] = dose: 50.0 mg/kg/injection, schedule: Q04DX002 (ip), vehicle: Klucel (hydroxypropylcellulose) (HPC)

Measured: T/C

Cc1ccc(S(=O)(=O)N(C)CCCCC(=O)O)cc1
inactive: [1] 90 % of control | [2] 104 % of control | [3] 93 % of control

O=[N+]([O-])c1ccc(C=Nc2ccc(C(c3ccccc3)(c3ccccc3)c3ccccc3)cc2)s1
inactive: [4] 95 % of control | [5] 97 % of control | [6] 93 % of control

COc1ccc2c(c1)CC1c3[nH]c4ccccc4c3CCN1C2 (centres undefined)
inactive: dose: 100.0 mg/kg/injection, schedule: Q01DX001 (ip), vehicle: Klucel (hydroxypropylcellulose) (HPC) 94 % of control | dose: 200.0 mg/kg/injection, schedule: Q01DX001 (ip), vehicle: Klucel (hydroxypropylcellulose) (HPC) 92 % of control

Nc1ccccc1SCc1ccccc1
inactive: dose: 100.0 mg/kg/injection, schedule: Q04DX003 (ip), vehicle: saline with Tween-80 101 % of control | dose: 200.0 mg/kg/injection, schedule: Q04DX003 (ip), vehicle: saline with Tween-80 96 % of control | dose: 400.0 mg/kg/injection, schedule: Q04DX003 (ip), vehicle: saline with Tween-80 98 % of control

CC(=O)OC1C=COC(C)C1OC(C)=O (centres undefined)
inactive: dose: 50.0 mg/kg/injection, schedule: Q01DX001 (ip), vehicle: saline 105 % of control | dose: 100.0 mg/kg/injection, schedule: Q01DX001 (ip), vehicle: saline 97 % of control | dose: 100.0 mg/kg/injection, schedule: Q01DX009 (ip), vehicle: saline 109 % of control | dose: 100.0 mg/kg/injection, schedule: Q04DX003 (ip), vehicle: saline 102 % of control | dose: 200.0 mg/kg/injection, schedule: Q01DX001 (ip), vehicle: saline 100 % of control | dose: 200.0 mg/kg/injection, schedule: Q01DX009 (ip), vehicle: saline 93 % of control | dose: 200.0 mg/kg/injection, schedule: Q04DX003 (ip), vehicle: saline 91 % of control | dose: 400.0 mg/kg/injection, schedule: Q01DX001 (ip), vehicle: saline 105 % of control | dose: 400.0 mg/kg/injection, schedule: Q01DX009 (ip), vehicle: saline 102 % of control | dose: 400.0 mg/kg/injection, schedule: Q04DX003 (ip), vehicle: saline 96 % of control

CCOc1ccc(-c2nccs2)cc1N
inactive: dose: 75.0 mg/kg/injection, schedule: Q04DX003 (ip), vehicle: Klucel (hydroxypropylcellulose) (HPC) 104 % of control | dose: 150.0 mg/kg/injection, schedule: Q04DX003 (ip), vehicle: Klucel (hydroxypropylcellulose) (HPC) 92 % of control | dose: 300.0 mg/kg/injection, schedule: Q04DX003 (ip), vehicle: Klucel (hydroxypropylcellulose) (HPC) 93 % of control

O=C1NCC(O)CN1
inactive: dose: 29.0 mg/kg/injection, schedule: Q01DX Z (ip), vehicle: methylcellulose (MC) 96 % of control | dose: 45.0 mg/kg/injection, schedule: Q01DX Z (ip), vehicle: methylcellulose (MC) 96 % of control | dose: 67.0 mg/kg/injection, schedule: Q01DX Z (ip), vehicle: methylcellulose (MC) 108 % of control | dose: 100.0 mg/kg/injection, schedule: Q01DX Z (ip), vehicle: methylcellulose (MC) 104 % of control

CCCCCCCCC1C(CCCCCCCC(=O)OC)SC(F)(F)C1(F)F (centres undefined)
inactive: [1] 95 % of control | [2] 93 % of control | [3] 102 % of control

CCNC(=O)N(O)C1(C#N)CCCCC1
inactive: [7] 98 % of control | [8] 96 % of control | [9] 98 % of control

CCCCCCCCCCCCCCCCN(C)S(=O)(=O)c1ccc(Cl)c(C(F)(F)F)c1
inactive: [4] 98 % of control | [5] 101 % of control | [6] 96 % of control

O=C1c2ccccc2C(=O)N1CC1CO1 (centres undefined)
inactive: [10] 90 % of control | [11] 93 % of control | dose: 100.0 mg/kg/injection, schedule: Q04DX002 (ip), vehicle: Klucel (hydroxypropylcellulose) (HPC) 93 % of control

NC(C(=O)O)c1ccccc1 (centres undefined)
inactive: dose: 12.5 mg/kg/injection, schedule: Q04DX002 (ip), vehicle: Klucel (hydroxypropylcellulose) (HPC) 96 % of control | [10] 104 % of control | [11] 96 % of control

COC1CCCCC1Br (centres undefined)
inactive: dose: 100.0 mg/kg/injection, schedule: Q01DX009 (ip), vehicle: Klucel (hydroxypropylcellulose) (HPC) 104 % of control | dose: 200.0 mg/kg/injection, schedule: Q01DX009 (ip), vehicle: Klucel (hydroxypropylcellulose) (HPC) 98 % of control | dose: 400.0 mg/kg/injection, schedule: Q01DX009 (ip), vehicle: Klucel (hydroxypropylcellulose) (HPC) 98 % of control

CC(CN)OCc1ccccc1 (centres undefined)
inactive: dose: 12.5 mg/kg/injection, schedule: Q01DX009 (ip), vehicle: saline 97 % of control | dose: 25.0 mg/kg/injection, schedule: Q01DX009 (ip), vehicle: saline 99 % of control | dose: 50.0 mg/kg/injection, schedule: Q01DX009 (ip), vehicle: saline 104 % of control

Cc1cc(S(=O)(=O)c2cc(C)c(O)c(C(=O)O)c2)cc(C(=O)O)c1O
inactive: dose: 100.0 mg/kg/injection, schedule: Q04DX002 (ip), vehicle: carboxymethylcellulose (CMC) 95 % of control | dose: 200.0 mg/kg/injection, schedule: Q04DX002 (ip), vehicle: carboxymethylcellulose (CMC) 98 % of control

CCOP(=O)(OCC)c1ccc(N=Cc2cnc3nc(NC(C)=O)[nH]c(=O)c3n2)cc1
inactive: [7] 109 % of control | [8] 112 % of control | [9] 101 % of control
